# Data reported in patent US12133527B2, “Insect and tick repellent formulations and methods of use thereof” (priority 2017, dated 2024).
# What was measured:
# skin of human subjects = assay: Human repeat insult patch test for skin irritation and sensitization; type: in vivo; conditions: positive control
# Experimental: To determine the irritation and sensitization (contact allergy) potential of a test material after repeated application to the skin of human subjects three studies were conducted using the formulations of the invention comprising 2-undecanone, soybean oil, polysorbate 20, sorbitan oleate, oil of lemon eucalyptus and denatured alcohol (e.g., test materials).
# Test materials to be tested under occlusive conditions were placed on an 8-millimeter aluminum Finn Chamber® (Epitest Ltd. Oy, Tuusula, Finland) supported on Scanpor® Tape (Norgesplaster A/S, Kristiansand, Norway) or an 8 mm filter paper coated aluminum Finn Chamber® AQUA supported on a thin flexible transparent polyurethane rectangular film coated on one side with a medical grade acrylic adhesive, consistent with adhesive used in state-of the-art hypoallergenic surgical tapes or a 7 mm IQ-ULTRA® closed cell system which is made of additive-free polyethylene plastic foam with a filter paper incorporated (It is supplied in units of 10 chambers on a hypoallergenic nonwoven adhesive tape; the width of the tape is 52 mm and the length is 118 mm) or other equivalents. Materials to be tested under semi-occlusive conditions were placed on a test strip with a Rayon/Polypropylene pad or on a 7.5 mm filter paper disc affixed to a strip of hypoallergenic tape (Johnson & Johnson 1 inch First Aid Cloth Tape).
# Test materials to be tested in an open patch were applied and rubbed directly onto the back of the subject. Approximately 0.02-0.05 mL (in case of liquids) and/or 0.02-0.05 gm (in case of solids) of the test material was used for the studies. Liquid test material was dispensed on a 7.5 mm paper disk, which fit in the Finn Chamber.
# Subjects were requested to bathe or wash as usual before arrival at the facility. Patches containing the test material were then affixed directly to the skin of the intrascapular regions of the back, to the right or left of the midline and subjects were dismissed with instructions not to wet or expose the test area to direct sunlight. Patches remained in place for 48 hours after the first application. Subjects were instructed not to remove the patches prior to their 48 hour scheduled visit. Thereafter, subjects were instructed to remove patches 24 hours after application for the remainder of the study.
# This procedure was repeated until a series of nine (9) consecutive, 24-hour exposures had been made three (3) times a week for three (3) consecutive weeks. Prior to each reapplication, the test sites were evaluated by trained laboratory personnel. Following a 10-14 day rest period a retest/challenge dose was applied once to a previously unexposed test site.
# Test sites were evaluated by trained laboratory personnel 48 and 96 hours after application.
# In the event of an adverse reaction, the area of erythema and edema were measured. Edema was estimated by the evaluation of the skin with respect to the contour of the unaffected normal skin. Subjects were instructed to report any delayed reactions that might occur after the final reading.
# Scoring scale and definition of symbols shown below are based on the scoring scheme according to the International Contact Dermatitis Research Group scoring scale [Rietschel, R. L., Fowler, J. F., Ed., Fisher's Contact Dermatitis (fourth ed.). […]
# insect or tick = assay: Duration of repellency of 2-undecanone alone (statement, no method); conditions: unformulated
structure (smiles),measurement,setting,value
"CCCCCCCCCCCCOS(=O)(=O)[O-].[Na+] [2.0% Sodium Lauryl Sulfate Solution, Sodium Lauryl Sulfate]",subjects with a Grade 1 delayed reaction,skin of human subjects; Study I,4 subjects
same,subjects with a Grade 1 reaction,skin of human subjects; Study I,35 subjects
same,subjects with a Grade 1 reaction,skin of human subjects; Study II,10 subjects
same,subjects with Grade 1 reaction,skin of human subjects; Study III,Two
same,subjects with Grade 2 reaction,skin of human subjects; Study III,two
"CCCCCCCCCC(C)=O [Soybean 2-undecanone, 2-undecanone]",duration of repellency,insect or tick,less than 30 min
